pIC50: −log10 of the molar value. Read-outs that look alike come from different tables or passages of the source.
Columns and labels:
ovine COX-1 = biological target: T1, ovine COX-1 (Ovis aries, UniProt P05979); experiment: COX inhibitor assay (Cayman 700100), COX-1
T1 sequence (P05979 25-600): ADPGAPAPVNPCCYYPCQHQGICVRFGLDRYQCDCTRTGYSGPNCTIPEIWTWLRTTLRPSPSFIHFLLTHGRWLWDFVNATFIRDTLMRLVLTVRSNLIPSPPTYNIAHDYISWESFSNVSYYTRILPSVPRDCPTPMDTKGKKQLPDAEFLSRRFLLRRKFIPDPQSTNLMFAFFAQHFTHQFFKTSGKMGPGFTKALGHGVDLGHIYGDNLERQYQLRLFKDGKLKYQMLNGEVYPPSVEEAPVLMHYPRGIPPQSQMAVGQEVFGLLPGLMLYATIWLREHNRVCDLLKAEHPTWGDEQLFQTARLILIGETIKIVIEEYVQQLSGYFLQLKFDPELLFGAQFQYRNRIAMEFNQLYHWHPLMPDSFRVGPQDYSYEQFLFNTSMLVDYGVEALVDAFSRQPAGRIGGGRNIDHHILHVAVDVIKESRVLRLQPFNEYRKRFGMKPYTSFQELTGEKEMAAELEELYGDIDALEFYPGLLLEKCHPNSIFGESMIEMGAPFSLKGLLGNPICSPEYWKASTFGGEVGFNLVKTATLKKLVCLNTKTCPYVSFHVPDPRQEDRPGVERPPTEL
Procedure: (§1) Each compound was assayed in concentration range of 10^−9 M to 10^−3 M, in triplicate. PRISM5 software was used to calculate IC50 values.

COX-2 in HCA-7 cells = biological target: T2, COX-2 in HCA-7 cells (Homo sapiens, UniProt P35354); experiment: Cellular COX-2 inhibitory activity (PGE2 ELISA) in HCA-7 cells; type: cell-based; settings: mean of three determinations, read-out: Cell COX-2 IC50
T2 construct: endogenous in cells; host or cells: HCA-7
T2 sequence (P35354 18-604): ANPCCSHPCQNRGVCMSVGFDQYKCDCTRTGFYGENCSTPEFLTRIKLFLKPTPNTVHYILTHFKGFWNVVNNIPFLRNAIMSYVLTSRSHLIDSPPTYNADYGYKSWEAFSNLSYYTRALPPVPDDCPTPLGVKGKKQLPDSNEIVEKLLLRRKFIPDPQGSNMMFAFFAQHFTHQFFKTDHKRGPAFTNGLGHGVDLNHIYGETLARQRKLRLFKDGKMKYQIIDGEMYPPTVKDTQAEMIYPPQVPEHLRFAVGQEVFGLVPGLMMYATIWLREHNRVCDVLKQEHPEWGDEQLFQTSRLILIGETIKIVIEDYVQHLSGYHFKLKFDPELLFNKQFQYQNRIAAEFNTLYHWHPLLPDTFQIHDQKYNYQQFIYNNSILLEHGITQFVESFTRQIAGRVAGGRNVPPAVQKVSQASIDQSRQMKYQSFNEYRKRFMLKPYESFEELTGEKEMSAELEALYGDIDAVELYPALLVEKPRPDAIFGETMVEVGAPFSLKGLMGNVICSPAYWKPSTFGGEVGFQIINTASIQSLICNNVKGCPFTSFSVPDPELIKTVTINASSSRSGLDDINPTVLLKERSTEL
Procedure: Based on the in vitro COX-2 inhibitory data, seventeen compounds (Table 2) were selected and further evaluated for their cellular COX-2 inhibitory activity in COX-2 expressing colorectal cancer cell line HCA-7. […]
HCA-7 cells (colorectal cancer cell line, COX-2 expression is confirmed with immunoblotting). The HCA-7 cells were cultured in T75 flasks using DMEM/F12 (1:1) medium supplemented with 10% (v/v) fetal bovine […]
were washed three times for 5 min with 1 ml PBS. Cells were negatively tested for mycoplasma contamination either by the vendor or in house. […]
vehicle (solvent) at concentration range of 10−9 M to 10−3 M. After 30 min incubation the reaction was stopped on ice and supernatants were taken and COX-2 mediated production of PGE2 was immediately determined […]
concentration is quantified by following manufacturer assay procedure. All experiments were done three times and ±s.e.m. were calculated.
The PRISM5 software was used to calculate IC50 values.

Stability in human serum = type: in vitro ADME; settings: 37 °C, up to 30 h
Procedure: Stock solutions of compounds 5, 14, 18 and 21 (10 mM) were prepared in DMSO for molecular biology. A Solution of each compound (10 mM) was added to freshly thaw human serum (from human male AB plasma, USA origin, sterile-filtered, Sigma– Aldrich) at 37 °C; the final concentration of the compound was 100 µM. The resulting solution was incubated at 37 °C and at various time intervals (0 to 30 h) 200 µL reaction mixture samples was taken and added to 200 µL of acetonitrile containing 0.1% trifluoroacetic acid in order to deproteinize the proteins. Into each sample mixture, 10 μL of an internal standard solution (2 mM solution in methanol) was added. Sample mixture was sonicated, vortexed and then centrifuged for 15 min. at 2150 × g. The clear supernatant was transferred into the fresh tube for LCMS analysis, with a similar method described for the in situ click LC-MS studies. […]

recombinant human COX-2 = biological target: T3, recombinant human COX-2 (Homo sapiens, UniProt P35354); experiment: COX inhibitor assay (Cayman 700100), COX-2
T3 sequence (P35354 18-604): T2 sequence (P35354 18-604)
Procedure: as §1

Stability in rat serum = type: in vitro ADME; settings: 37 °C, up to 30 h
[1] = test system: carrageenan-induced rat paw edema; experiment: Carrageenan-induced rat paw edema assay; type: in vivo; settings: for Change in behavior and toxic effects: oral doses of the edema assay; for ED50 anti-inflammatory activity: p.o.; for times more potent than celecoxib: versus celecoxib ED50 at 3 h
Procedure: In vivo anti-inflammatory activity was measured using a carrageenan-induced rat paw edema assay. In brief, three to five male Sprague–Dawley rats, 8–11-weeks-old, weighing 180–200 g (Charles-River Canada) were used in each group. […] A dose–response curve was constructed using GraphPad Prism 5.0 and ED50were calculated. […] In vivo anti-inflammatory assays were carried using a protocol approved by the Health Sciences Animal Welfare Committee, University of Alberta, Edmonton, Canada.

Structure (SMILES) | pIC50 (ovine COX-1) | pIC50 (COX-2 in HCA-7 cells) | Stability in human serum (Stability in human serum) | pIC50 (recombinant human COX-2) | COX-2 SI (selectivity index) (recombinant human COX-2; (COX-1 IC50)/(COX-2 IC50)) | Stability in rat serum (Stability in rat serum) | melting point [°C] | Change in behavior and toxic effects [1] | ED50 anti-inflammatory activity ([1]; 3 h time point) [mg/kg] | ED50 anti-inflammatory activity ([1]; 5 h time point) [mg/kg] | times more potent than celecoxib [1] [times] | COX-2 SI (selectivity index) (recombinant human COX-2)
[N-]=[N+]=Nc1cc(-c2ccccc2)nn1-c1ccccc1 [Compound 5, 5-azido-1,3-diphenyl-1H-pyrazole] | < 4.00 | < 6.00 | no significant degradation | 4.74 | >5.5 | no significant degradation |  |  |  |  |  | 
c1ccc(-c2cn(-c3cc(-c4ccccc4)nn3-c3ccccc3)nn2)cc1 [Compound 7] | < 4.00 | 5.52 |  | 6.05 | >111.1 |  |  |  |  |  |  | 
Clc1ccc(-c2cn(-c3cc(-c4ccccc4)nn3-c3ccccc3)nn2)cc1 [Compound 8] | < 4.00 | 5.40 |  | 6.80 | >625 |  | 134 to 136 |  |  |  |  | 
Fc1ccc(-c2cn(-c3cc(-c4ccccc4)nn3-c3ccccc3)nn2)cc1 [Compound 9] | < 4.00 | 5.70 |  | 6.85 | >714.2 |  | 129 to 131 |  |  |  |  | 
COc1ccc(-c2cn(-c3cc(-c4ccccc4)nn3-c3ccccc3)nn2)cc1 [Compound 10] | < 4.00 |  |  | 4.82 | >6.5 |  |  |  |  |  |  | 
Cc1ccc(-c2cn(-c3cc(-c4ccccc4)nn3-c3ccccc3)nn2)cc1 [Compound 11] | < 4.00 | 5.70 |  | 5.49 | >31.2 |  | 125 to 127 |  |  |  |  | 
CCc1ccc(-c2cn(-c3cc(-c4ccccc4)nn3-c3ccccc3)nn2)cc1 [Compound 12] | < 4.00 |  |  | 4.74 | >5.5 |  | 130 to 133 |  |  |  |  | 
Cc1cc(-n2cc(-c3ccccc3)nn2)n(-c2ccc(S(C)(=O)=O)cc2)n1 [Compound 16] | < 4.00 |  |  | 5.00 | >10 |  | 146 to 148 |  |  |  |  | 
Cc1cc(-n2cc(-c3ccc(Cl)cc3)nn2)n(-c2ccc(S(C)(=O)=O)cc2)n1 [Compound 17] | < 4.00 | 6.00 |  | 5.96 | >90.9 |  | 145 to 148 |  |  |  |  | 
Cc1cc(-n2cc(-c3ccc(F)cc3)nn2)n(-c2ccc(S(C)(=O)=O)cc2)n1 [Compound 18, 4-(4-fluorophenyl)-1-[2-(4-methanesulfonyl-phenyl)-5-methyl-2H-pyrazol-3-yl]-1H [1,2,3]triazole] | < 4.00 | 7.22 |  | 7.05 |  |  |  | No unusual change in behavior and toxic effects | 0.44 | 0.99 | > 25 | >1,111.1
COc1ccc(-c2cn(-c3cc(C)nn3-c3ccc(S(C)(=O)=O)cc3)nn2)cc1 [Compound 19] | < 4.00 |  |  | 4.59 | >3.84 |  |  |  |  |  |  | 
Cc1ccc(-c2cn(-c3cc(C)nn3-c3ccc(S(C)(=O)=O)cc3)nn2)cc1 [Compound 20] | < 4.00 |  |  | 4.72 | >5.26 |  |  |  |  |  |  | 
Cc1cc(-n2cc(-c3ccc(N)cc3)nn2)n(-c2ccc(S(C)(=O)=O)cc2)n1 [Compound 21, 4-{1-[2-(4-methanesulfonyl-phenyl)-5-methyl-2H-pyrazol-3-yl]-1H-[1,2,3]triazol-4-yl}-phenylamine] | < 4.00 | 7.10 |  | 7.30 |  |  |  | No unusual change in behavior and toxic effects | 0.12 | 0.34 | > 25 | >2,000
Cc1cc(-n2cc(-c3ccc(C(F)(F)F)cc3)nn2)n(-c2ccc(S(C)(=O)=O)cc2)n1 [Compound 22] | < 4.00 | 6.82 |  | 6.66 | >454.5 |  | 209 to 211 |  |  |  |  | 
Cc1cc(-n2cc(CC(C)C)nn2)n(-c2ccc(S(C)(=O)=O)cc2)n1 [Compound 23] | < 4.00 |  |  | 5.21 | >16.1 |  | 150 to 153 |  |  |  |  | 
Cc1cc(-n2cc(CN3CCOCC3)nn2)n(-c2ccc(S(C)(=O)=O)cc2)n1 [Compound 24] | < 4.00 | 6.15 |  | 6.09 | >121.9 |  | 172 to 174 |  |  |  |  | 
Cc1cc(-n2cc(CN3CCCCC3)nn2)n(-c2ccc(S(C)(=O)=O)cc2)n1 [Compound 25] | < 4.00 | 4.96 |  | 5.28 | >19.2 |  |  |  |  |  |  | 
CS(=O)(=O)c1ccc(-n2nc(-c3ccccc3)cc2N=[N+]=[N-])cc1 [Compound 27, 5-azido-1-(4-methanesulfonyl-phenyl)-3-phenyl-1H-pyrazole] |  |  | no significant degradation |  |  | no significant degradation |  |  |  |  |  | 
CS(=O)(=O)c1ccc(-n2nc(-c3ccccc3)cc2-n2cc(-c3ccc(F)cc3)nn2)cc1 [Compound 28] | < 4.00 | 6.70 |  | 6.85 | >714.2 |  |  |  |  |  |  | 
CS(=O)(=O)c1ccc(-n2nc(-c3ccccc3)cc2-n2cc(-c3ccc(N)cc3)nn2)cc1 [Compound 29] | < 4.00 | 7.00 |  | 5.57 | >37.0 |  |  |  |  |  |  | 
Cc1cc(N=[N+]=[N-])n(-c2ccccc2)n1 [Compound 31, 5-azido-3-methyl-1-phenyl-1H-pyrazole] |  |  | no significant degradation |  |  | no significant degradation | 123 to 125 |  |  |  |  | 
Cc1cc(-n2cc(-c3ccc(F)cc3)nn2)n(-c2ccccc2)n1 [Compound 32] | 4.34 | 7.00 |  | 4.92 | 3.7 |  |  |  |  |  |  | 
Cc1cc(-n2cc(-c3ccc(N)cc3)nn2)n(-c2ccccc2)n1 [Compound 33] | 4.24 | 7.00 |  | 5.07 | 6.73 |  |  |  |  |  |  | 

— PMC5431875, “In situ click chemistry generation of cyclooxygenase-2 inhibitors” (Nature Communications, 2017)
